B1: OP-1® Osteogenic graft material: Osteogenic protein-1, a 36 kD homodimer protein in the TGI-β super-family; a bone morphogenic protein (protein, UniProt P18075 293-431, looked up)
Bone morphogenetic protein 7: STGSKQRSQNRSKTPKNQEALRMANVAENSSSDQRQACKKHELYVSFRDLGWQDWIIAPEGYAAYYCEGECAFPLNSYMNATNHAIVQTLVHFINPETVPKPCCAPTQLNAISVLYFDDSSNVILKKYRNMVVRACGCH
modifications: graft material
notes: Osteogenic protein-1, a 36 kD homodimer protein in the TGI-β super-family; a bone morphogenic protein

Legend:
[1] = system: Staphylococcus aureus (ATCC strain #6538); test: modified Kirby Bauer susceptibility model, zone of inhibition around antibiotic containing HA disk; format: cell-based; conditions: for Zone of Inhibition (mm): antibiotic absorbed into precipitated crystalline HA coating, Mueller-Hinton agar, 24 hr at 37° C.
Experimental: 1.2 Grams of tobramycin sulfate was dissolved in 12 milliliters of sterile deionized water (100 mg/ml). […] Ten (10) μl of solution was pipetted onto the surface of each of the […] coated disks and allowed to dry. […] The test coupons were then placed into a buffered saline at 37° C. immediately after the absorption process was completed. […] In the well-known Kirby Bauer Susceptibility Model test organisms were propagated and handled in accordance with ATCC recommendations for broth media, agar, and incubation specifications. […] Each seeded plate was challenged with both an antibiotic containing HA disk and a non-antibiotic containing HA disk, which served as a control. Samples were tested in duplicate (i.e., two plates per organism). Following incubation for 24 hr. at 37° C., the plates were examined for zones of inhibition around the disks. The zone of inhibition is defined as the distance between the test disk and the edge of bacterial growth. It is common for a hazy, or “ghost” zone to exist between the areas of complete inhibition and full bacterial growth. This “ghost” zone is the result of partial inhibition and is not included in the measurement of the zone of inhibition.

[2] = binding of [125I]OP-1 to PA coated titanium disks (scintillation counting); conditions: FIG. 3 time course
Experimental: Materials and Methods—Preparation of implant test articles: Titanium alloy (Ti6A14V) disks/coupons 5 mm in diameter and 3 mm thick were coated both sides with PA coating using the method of Example I. The thickness of the coating surface was determined by SEM to be nominally 20 μm to 50 μm.
Determination of the binding capacity of OP-1® Osteogenic graft material: A pre-mixed blend of unlabelled OP-1® Osteogenic graft material with iodine [^125I] for tracking purposes was used. The OP-1® Osteogenic graft material in a lactose solution was pipetted on PA coated disks in triplicate. A range of OP-1® Osteogenic graft material incubation time and concentration treatment was applied to determine the time-course and binding capacity of the graft material on the PA coated disk. Following the incubation, each coupon was washed with lactose solution and the washes were collected in a scintillation vial. 10 ml of the scintillation cocktail was added to each test article and wash sample and the scintillation counts were measured in a liquid scintillation counter (LSC) to calculate the amount of OP-1® Osteogenic graft material bound to the PA coated disk.

[3] = system: adductor muscles (intramuscular pouch); format: in vivo, Long-Evans male rats
Description: In-vivo study of OP-1® Osteogenic graft material coated implants: Freshly reconstituted OP-1® Osteogenic graft material in lactose solution was loaded onto each surface of the PA coated disk using sterile pipettes. The solution evenly spaced across the dry surface and was completely absorbed. Sixteen Long-Evans male rats with body weight 300-390 g were used in the study. The animals were anesthetized and an incision was made on the medial thigh to prepare intramuscular pouch within the adductor muscles for placement of the implant articles, on both contra-lateral limbs. A total of 32 implants were divided into 4 groups: (A) titanium disks; (B) titanium disks coated with PA, (C) titanium disks coated with PA plus OP-1® Osteogenic graft material (40 μg), (D) OP-1® Osteogenic graft material solution (40 μg). For Group C, the OP-1® Osteogenic graft material solution was directly pipeted on each Ti disk immediately before implantation. The solution was absorbed within 1 minute. For Group D, OP-1® Osteogenic graft material solution was dropped into the muscular pouch. The same amount of identical carrier solution for OP-1® Osteogenic graft material was loaded on disks of Groups A and B. After implantation, the pouch was closed with 3-0 chromic sutures, and the wound was closed in layers. The rats were housed individually and allowed unrestricted activity immediately after […]. All the animals were sacrificed 4 weeks postoperatively. The complete limb was disarticulated from hip joint and x-rayed. The implants with their surrounding tissues were retrieved. All implants were processed for undecalcified thin section histology using EXAKT technique. The slides were stained with Stevenel's blue/van Gieson's picrofuchsin method for histological analysis. Bone was stained in red color and fibrous tissue in blue. Half of the specimens of Group D were decalcified and embedded in paraffin. Sections were stained with hematoxylin and eosin.

[4] = precipitation of OP-1 protein in solution; format: physicochemical

Molecule | Zone of Inhibition (mm) [1] | further results
Penicillin [Penicillin Potassium Salt] | 29 mm | –
O=C(O)c1cn(C2CC2)c2cc(N3CCNCC3)c(F)cc2c1=O [Ciprofloxacin] | 15.5 mm | –
CN[C@H](CC(C)C)C(=O)N[C@H]1C(=O)N[C@@H](CC(N)=O)C(=O)N[C@H]2C(=O)N[C@H]3C(=O)N[C@H](C(=O)N[C@H](C(=O)O)c4cc(O)cc(O)c4-c4cc3ccc4O)[C@H](O)c3ccc(c(Cl)c3)Oc3cc2cc(c3O[C@@H]2O[C@H](CO)[C@@H](O)[C@H](O)[C@H]2O[C@H]2C[C@](C)(N)[C@H](O)[C@H](C)O2)Oc2ccc(cc2Cl)[C@H]1O [Vancomycin] | 10.5 mm | –
CC(=O)OCC1=C(C(=O)O)N2C(=O)[C@@H](NC(=O)CCC[C@@H](N)C(=O)O)[C@H]2SC1 [Cephalosporin C] | 11.5 mm | –
CC1=C(C(=O)O)N2C(=O)[C@@H](NC(=O)[C@H](N)c3ccccc3)[C@H]2SC1 [Cephalexin] | 19 mm | –
NC[C@H]1O[C@H](O[C@H]2[C@H](O)[C@@H](O[C@H]3O[C@H](CO)[C@@H](O)[C@H](N)[C@H]3O)[C@H](N)C[C@@H]2N)[C@H](N)C[C@@H]1O [Tobramycin] | 10 mm | biological activity of released antibiotic ([1]; after absorption into the hydroxyapatite structure): remained biologically active
Penicillin [Penicillin Benzathine] | 22.5 mm | –
Cn1nnnc1SCC1=C(C(=O)O)N2C(=O)[C@@H](NC(=O)[C@H](O)c3ccccc3)[C@H]2SC1 [Cefamandole] | 25 mm | –
Penicillin [Penicillin Procaine] | 26.5 mm | –
Penicillin [Penicillin Sodium Salt] | 28 mm | –
N[C@@H](C(=O)N[C@@H]1C(=O)N2C(C(=O)O)=C(Cl)CS[C@H]12)c1ccccc1 [Cefaclor] | 20.5 mm | –
B1 | – | time after loading at which maximal binding to PA is achieved [2]: 5 h; extension of new bone surrounding the disks ([3]; Group C: titanium disks coated with PA plus OP-1 (40 μg), radiographic, 4 weeks): ≤ 10 mm; inflammation in the specimens ([3]; rat, in vivo): no inflammation; incidence of bone formation ([3]; the two groups treated with OP-1 (40 μg; Groups C and D), 4 weeks): 100%; concentration over which protein spontaneously precipitates [4]: over 5 mg/mL

From patent US20050169964A1, “Antibiotic calcium phosphate coating” (Howmedica Osteonics Corp., priority 2001, published 2005)
